The values that follow come from patent US10323021B2, “Triazoles as NR2B receptor inhibitors” (Janssen Pharmaceuticals, Inc., priority 2014, dated 2019).

pIC50: −log10 of the molar value.

For orientation: pIC50 means the negative decadic logarithm of the IC50, by convention in mol/L. High values mean a low IC50, low ones a high IC50.

Assay [1] deals with T1, rat NR1/NR2B receptor (Rattus norvegicus (Rat), UniProt P35439+Q00960). Description: NR2B binding assay: inhibition of specific [3H]-Ifenprodil binding to the rat NR1/NR2B receptor. To be noted: for inhibition at 1 µM: 1 μM test compound, read-out: NR2B binding assay % INH @ 1 μM; for pIC50: rat brain membranes, [3H]-Ifenprodil, Hill-plot 2-parameter model. The procedure:
Inhibition of Specific Binding to the Rat NR1/NR2B Receptor
Male Wistar rats (180 to 200 g) were killed by suffocation in a CO2 chamber for two minutes. Whole brains without cerebellum were removed and dissected on ice, placed into closed vials and stored at −70° C.
Membrane fractions were prepared and tested using standard techniques. At the time of the assay, 1 g of the brains was placed into 25 ml of 50 mM Tris/10 mM EDTA buffer, pH 7.1, (25 vol. per g of original tissue) and homogenized for 30 sec at 20000 rpm with an Ultraturrax T25 (Jahnke & Kunkel, IKA-Labortechnik, Staufen, Germany). The homogenate was centrifuged at 4° C. for 10 min at 48000 g (OPTIMA L-70, Beckman, Palo Alto, Calif. 94304, USA).
The supernatant was discarded and the pellet was homogenized on ice for 30 sec at 20000 rpm with an Ultraturrax and again centrifuged at 48000 g for 30 minutes at 4° C. The resulted pellet was resuspended in 25 ml of 50 mM Tris/10 mM EDTA buffer, homogenized for 30 sec with an Ultraturrax, aliquoted, frozen at −70° C. and stored until use.
After thawing on the day of the assay, a 5 ml membrane aliquot was centrifuged at 48000 g for 30 min at 4° C. The pellet was resuspended in 5 ml of 5 mM Tris/1 mM EDTA buffer, pH 7.4, homogenized for 30 sec at 20000 rpm with an Ultraturrax and centrifuged at 48000 g for 30 min at 4° C. This was repeated twice. The final pellet was homogenized in 5 ml of 5 mM Tris/1 mM EDTA buffer at 4° C. with an Ultraturrax and used for the Ifenprodil-binding assay as described in the following.
Nonspecific binding was estimated in the presence of […] CP101.606. The samples were incubated for 60 min. at 4° C.
The incubation was terminated by filtration of the membrane preparations using Filtermat B (Pharmacia, Uppsala Sweden) and a Micro Cell Harvester (Skatron, Lier, Norway). The Filtermat B had been presoaked with 1% polyethylene imine and carefully washed with 50 mM Tris/HCl-buffer pH 7.7 after the filtration to separate free and bound radioactivity.
The optimal amount of membrane preparation in the assay had been determined and optimized for each membrane preparation separately before the test.
For pipetting of the incubation mixture we routinely used the robot Biomek2000 (Fa. Beckman).
For determination of IC50 values the Hill-plot, 2-parameter-model was used.

Assay [2] relates to mice (forced swim test, model of depression). Description: Forced swim test in mice. Type of assay: in vivo, mouse. To be noted: p.o., 30 minutes before the test, male NMRI mice. The procedure:
The compounds of the invention show significant antidepressive effects in the forced swim test in mice, an animal model of depression at doses of 100 mg/kg or below.
The method, which detects antidepressant activity, follows that described by Porsolt et al (Arch. Int. Pharmacodyn., 229, 327-336, 1977), which is incorporated by reference herein in its entirety.
Mice forced to swim in a situation from which they cannot escape rapidly become immobile. Antidepressants decrease the duration of immobility.
Male NMRI mice (Janvier, France), weighing 20-30 g, were individually placed in a cylinder (height=24 cm; diameter=13 cm) containing 10 cm water (22° C.) from which they cannot escape.
The mice were placed in the water for 6 minutes and the duration of immobility during the last 4 minutes was measured. The latency to the first bout of immobility was also recorded starting from the beginning of the test. 10 mice were studied per group. The test substance was administered p.o. 30 minutes before the test and compared with vehicle control group. The test was performed blind.

The next assay has as its target hERG receptor (Homo sapiens (Human), UniProt Q12809). Description: HERGBD: inhibition of specific [3H]-Dofetilide binding to the hERG receptor. To be noted: HEK hERG membranes, Hill-plot 2-parameter model. (hERG is a cardiac potassium channel; its block is linked to QT prolongation.)
The target in assay [3] is T1, rat NR1/NR2B receptor. Briefly: RRNR2BB: inhibition of specific [3H]-Ifenprodil binding to the rat NR1/NR2B receptor. The settings on record: rat brain membranes, Hill-plot 2-parameter model.
Protocol: After thawing on the day of the assay, a 5 ml membrane aliquote was centrifuged at 48000 g for 30 min at 4° C. […] This step was repeated twice. The final pellet was homogenized in 5 ml of 5 mM Tris/1 mM EDTA buffer at 4° C. with an Ultraturrax and used for the Ifenprodil-binding assay.
Nonspecific binding was estimated in the presence of 10 M CP101.606. The samples were incubated for 60 min. at 4° C.
Binding was terminated by filtration of the incubated membrane preparations using Filtermat B (Pharmacia, Uppsala Sweden) and a Micro Cell Harvester (Skatron, Lier, Norway). The Filtermat B had been presoaked with 1% polyethylenimine and carefully washed with 50 mM Tris/HCl-buffer pH=7.7 after the filtration to separate free and bound radioactivity.
For pipetting of the incubation mixture the robot Biomek2000 (Fa. Beckman) was used.
The specific binding in this assay was about 80%.

T1 sequence (Q00960 27-1482, other chains not shown): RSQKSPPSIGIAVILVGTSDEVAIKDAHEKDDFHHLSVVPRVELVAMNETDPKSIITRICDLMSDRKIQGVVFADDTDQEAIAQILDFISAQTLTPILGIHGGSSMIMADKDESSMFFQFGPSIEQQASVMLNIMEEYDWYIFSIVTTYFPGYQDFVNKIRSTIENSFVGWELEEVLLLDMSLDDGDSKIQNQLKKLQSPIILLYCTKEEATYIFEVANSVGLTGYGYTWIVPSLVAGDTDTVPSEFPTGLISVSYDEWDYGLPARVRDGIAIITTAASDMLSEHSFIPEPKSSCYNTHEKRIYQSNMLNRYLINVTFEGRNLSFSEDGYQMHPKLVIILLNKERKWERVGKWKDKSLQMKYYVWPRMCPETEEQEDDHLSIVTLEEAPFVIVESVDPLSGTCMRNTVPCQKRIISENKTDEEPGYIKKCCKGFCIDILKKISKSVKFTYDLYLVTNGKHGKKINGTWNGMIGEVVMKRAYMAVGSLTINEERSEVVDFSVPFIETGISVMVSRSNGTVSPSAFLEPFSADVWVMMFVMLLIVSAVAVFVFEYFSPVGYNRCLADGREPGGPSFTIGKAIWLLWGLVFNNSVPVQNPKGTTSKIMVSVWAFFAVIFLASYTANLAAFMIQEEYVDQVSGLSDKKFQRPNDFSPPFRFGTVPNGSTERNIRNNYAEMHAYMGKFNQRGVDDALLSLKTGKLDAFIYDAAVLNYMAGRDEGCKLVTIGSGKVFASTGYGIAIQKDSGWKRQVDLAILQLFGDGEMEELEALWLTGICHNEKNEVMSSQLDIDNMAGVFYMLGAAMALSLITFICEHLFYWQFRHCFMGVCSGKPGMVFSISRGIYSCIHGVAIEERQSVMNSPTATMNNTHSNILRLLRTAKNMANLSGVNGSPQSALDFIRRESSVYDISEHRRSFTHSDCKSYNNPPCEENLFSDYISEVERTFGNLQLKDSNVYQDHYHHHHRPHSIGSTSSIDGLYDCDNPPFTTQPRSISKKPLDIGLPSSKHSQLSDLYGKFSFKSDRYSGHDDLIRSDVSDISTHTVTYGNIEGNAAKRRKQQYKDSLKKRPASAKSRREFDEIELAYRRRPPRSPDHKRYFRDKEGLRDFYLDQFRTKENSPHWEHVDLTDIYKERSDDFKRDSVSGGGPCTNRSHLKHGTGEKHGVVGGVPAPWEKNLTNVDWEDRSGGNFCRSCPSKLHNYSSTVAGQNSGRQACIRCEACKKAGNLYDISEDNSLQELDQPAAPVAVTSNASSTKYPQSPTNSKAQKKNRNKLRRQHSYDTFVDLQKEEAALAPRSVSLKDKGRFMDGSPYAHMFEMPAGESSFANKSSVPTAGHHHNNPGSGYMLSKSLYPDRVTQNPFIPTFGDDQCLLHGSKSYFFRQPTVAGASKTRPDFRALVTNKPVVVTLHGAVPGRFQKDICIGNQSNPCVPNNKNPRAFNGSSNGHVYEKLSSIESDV
Sequence of hERG receptor (Q12809 whole entry): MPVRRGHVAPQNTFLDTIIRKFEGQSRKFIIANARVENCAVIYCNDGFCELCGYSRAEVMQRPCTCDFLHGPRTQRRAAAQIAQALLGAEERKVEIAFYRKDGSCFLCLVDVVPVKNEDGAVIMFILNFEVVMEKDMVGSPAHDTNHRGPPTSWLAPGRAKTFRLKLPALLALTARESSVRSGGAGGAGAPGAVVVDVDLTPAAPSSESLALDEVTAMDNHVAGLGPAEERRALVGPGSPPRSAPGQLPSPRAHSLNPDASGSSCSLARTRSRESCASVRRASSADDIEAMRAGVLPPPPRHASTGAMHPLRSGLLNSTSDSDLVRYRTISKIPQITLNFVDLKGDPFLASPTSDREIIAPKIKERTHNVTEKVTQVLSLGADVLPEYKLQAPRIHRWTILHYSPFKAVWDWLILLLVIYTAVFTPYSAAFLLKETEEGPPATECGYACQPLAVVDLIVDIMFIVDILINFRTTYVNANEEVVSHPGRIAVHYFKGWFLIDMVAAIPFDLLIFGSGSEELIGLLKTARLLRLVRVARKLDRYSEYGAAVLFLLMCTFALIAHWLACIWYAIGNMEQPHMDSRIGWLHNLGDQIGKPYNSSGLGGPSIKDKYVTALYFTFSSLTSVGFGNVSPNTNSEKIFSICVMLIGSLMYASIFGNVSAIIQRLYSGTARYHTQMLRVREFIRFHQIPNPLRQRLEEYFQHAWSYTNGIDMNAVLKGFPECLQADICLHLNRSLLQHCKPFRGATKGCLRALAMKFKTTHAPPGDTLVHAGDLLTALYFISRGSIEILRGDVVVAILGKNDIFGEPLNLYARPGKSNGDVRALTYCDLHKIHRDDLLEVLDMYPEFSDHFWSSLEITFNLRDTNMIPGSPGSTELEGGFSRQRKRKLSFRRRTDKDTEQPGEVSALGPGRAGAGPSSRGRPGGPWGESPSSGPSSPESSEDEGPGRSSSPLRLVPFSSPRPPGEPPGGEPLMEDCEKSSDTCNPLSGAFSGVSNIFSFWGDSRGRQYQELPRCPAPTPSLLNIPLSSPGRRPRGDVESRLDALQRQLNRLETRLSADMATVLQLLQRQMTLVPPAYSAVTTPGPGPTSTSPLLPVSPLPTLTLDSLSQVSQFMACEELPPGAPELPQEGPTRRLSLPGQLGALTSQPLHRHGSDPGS
Protocol for hERG receptor: Inhibition of Specific Binding to the hERG—Receptor (HERGBD)
A HEK cell line with stable transfected human ERG receptor was used for the assay. The cells were grown adherently and maintained in DULBECCOS' MEM medium with 10% FBS, 1% non-essential amino acids, 1% Penicillin/Streptomycin and 400 μg/ml G418 (Calbiochem).
For binding assays and membrane preparations the cell culture medium was removed, cells were washed with PBS. Crude membranes for radioligand binding experiments were prepared by scraping the cells off the dishes in ice cold 20 mM HEPES/0.1 mM KCl/pH 7.2. […]
Binding was terminated by filtration of the incubated membrane preparations using Filtermat B (Pharmacia, Uppsala Sweden) and a Micro Cell Harvester (Skatron, Lier, Norway). The Filtermat B had been presoaked with 1% polyethylenimine and carefully washed with 0.05 M Tris/HCl-buffer pH=7.7 after the filtration to separate free and bound radioactivity. The filters were counted in a scintillation counter (Betaplate 1205, Berthold, Wildbad, Germany) in order to determine the specific binding of [^3H]-Dofetilide.
The optimal amount of membrane preparation in the assay was determined and optimized for each membrane preparation separately in front of using the membranes in compound testing.
The IC50 values in the table below were determined using the Hill-plot, 2-parameter-model.

As to `Cc1nc(CO)nn1Cc1cn(-c2ccccc2)nn1` [Example 48, 4-(3-Hydroxymethyl-5-methyl-[1,2,4]triazol-1-ylmethyl)-1-phenyl-1H-[1,2,3]triazole], on rat NR1/NR2B receptor [1], the inhibition at 1 µM stood at 29.6%. Further, at rat NR1/NR2B receptor [1] (10 μM test compound, read-out: NR2B binding assay % INH @ 10 μM), the inhibition at 10 µM was -17.1%.
For the compound `Fc1ccc(-n2cc(Cn3ccnc3C3CC3)nn2)cc1C(F)F` [Example 82, 4-(2-Cyclopropyl-imidazol-1-ylmethyl)-1-(3-difluoromethyl-4-fluoro-phenyl)-1H-[1,2,3]triazole], the Minimum effective dose in assay [2] was determined as 60 mg/kg.
Same read-out and setting: in the case of `OCCc1nccn1Cc1cn(-c2ccc(F)c(OC(F)F)c2)nn1` [Example 101, 1-(3-Difluoromethoxy-4-fluoro-phenyl)-4-[2-(2-hydroxy-ethyl)-imidazol-1-ylmethyl]-1H-[1,2,3]triazole] it was above 30 mg/kg.
Turning to `FCCc1nccn1Cc1cn(-c2cc(F)cc(C(F)F)c2)nn1` [Example 104, 1-(3-Difluoromethyl-5-fluoro-phenyl)-4-[2-(2-fluoro-ethyl)-imidazol-1-ylmethyl]-1H-[1,2,3]triazole], the negative logarithm of the IC50 (pIC50) at rat NR1/NR2B receptor [1] was 6.73; on hERG receptor, 4.51; on rat NR1/NR2B receptor [3] it was 6.73.
At hERG receptor, `Cc1nccn1Cc1cn(-c2ccc(F)c(C(C)(F)F)c2)nn1` [Example 105, 1-[3-(1,1-Difluoro-ethyl)-4-fluoro-phenyl]-4-(2-methyl-imidazol-1-ylmethyl)-1H-[1,2,3]triazole] showed a negative logarithm of the IC50 (pIC50) of 4.64.
As for `Cc1ccc(C(=O)c2nccn2Cc2cn(-c3ccc(Cl)cc3)nn2)cc1` [Example 116, [1-[[1-(4-chlorophenyl)triazol-4-yl]methyl]imidazol-2-yl]-(p-tolyl)methanone], on rat NR1/NR2B receptor [1], the inhibition at 1 µM was -4.9%.
Take `OCCc1nccn1Cc1cn(-c2ccc(S(F)(F)(F)(F)F)cc2)nn1` [Example 118, 2-(1-((1-(4-(pentafluoro-l6-sulfanyl)phenyl)-1H-1,2,3-triazol-4-yl)methyl)-1H-imidazol-2-yl)ethan-1-ol]: the negative logarithm of the IC50 (pIC50) on rat NR1/NR2B receptor [1] and on rat NR1/NR2B receptor [3] was 6.58 in each case.
